According to ChEMBL document CHEMBL1667756, “Design, synthesis and antibacterial activity of 3-methylenepyrrolidine formyl hydroxyamino derivatives as novel peptide deformylase inhibitors” (2011):
Converted amounts (≈) assume the structure as drawn.

Assays:
Assay type in all cases: functional
Staphylococcus aureus [1] = test: Antibacterial activity against Staphylococcus aureus ATCC 25923 by broth micro dilution technique
Staphylococcus aureus [2] = test: Antibacterial activity against methicillin-susceptible Staphylococcus aureus ATCC 29213 by broth micro dilution technique
Staphylococcus aureus [3] = test: Antibacterial activity against methicillin-resistant Staphylococcus aureus ATCC 43300 by broth micro dilution technique
[4] = system: Staphylococcus epidermidis; test: Antibacterial activity against methicillin-resistant Staphylococcus epidermidis ATCC 12228 by broth micro dilution technique
Staphylococcus aureus [5] = test: Antibacterial activity against methicillin-susceptible Staphylococcus aureus by agar dilution method
Staphylococcus aureus [6] = test: Antibacterial activity against methicillin-resistant Staphylococcus aureus by agar dilution method
[7] = system: Staphylococcus epidermidis; test: Antibacterial activity against methicillin-susceptible Staphylococcus epidermidis by agar dilution method
[8] = system: Staphylococcus epidermidis; test: Antibacterial activity against methicillin-resistant Staphylococcus epidermidis by agar dilution method
Streptococcus pneumoniae [9] = test: Antibacterial activity against penicillin-susceptible Streptococcus pneumoniae by agar dilution method
Streptococcus pneumoniae [10] = test: Antibacterial activity against penicillin-resistant Streptococcus pneumoniae by agar dilution method
Haemophilus influenzae [11] = test: Antibacterial activity against Haemophilus influenzae by agar dilution method
Staphylococcus aureus [12] = test: Antibacterial activity against Staphylococcus aureus OXFORD by broth micro dilution technique
Staphylococcus aureus [13] = test: Antibacterial activity against Staphylococcus aureus WCUH29 by broth micro dilution technique
Enterococcus faecalis = test: Antibacterial activity against Enterococcus faecalis by broth micro dilution technique
Enterococcus faecium = test: Antibacterial activity against Enterococcus faecium X7501 by broth micro dilution technique
Haemophilus influenzae [14] = test: Antibacterial activity against Haemophilus influenzae Q1 by broth micro dilution technique
Haemophilus influenzae [15] = test: Antibacterial activity against Haemophilus influenzae H128 by broth micro dilution technique
Haemophilus influenzae [16] = test: Antibacterial activity against AcrA deficient Haemophilus influenzae H128 by broth micro dilution technique
Moraxella catarrhalis = test: Antibacterial activity against Moraxella catarrhalis 1502 by broth micro dilution technique
Streptococcus pneumoniae [17] = test: Antibacterial activity against Streptococcus pneumoniae 1629 by broth micro dilution technique
Streptococcus pneumoniae [18] = test: Antibacterial activity against Streptococcus pneumoniae N1387 by broth micro dilution technique
Streptococcus pneumoniae [19] = test: Antibacterial activity against Streptococcus pneumoniae ERY2 by broth micro dilution technique
Escherichia coli = test: Antibacterial activity against Escherichia coli by broth micro dilution technique
Streptococcus pyogenes [20] = test: Antibacterial activity against Streptococcus pyogenes 1307006P by broth micro dilution technique
Streptococcus pyogenes [21] = test: Antibacterial activity against Streptococcus pyogenes 1308007P by broth micro dilution technique

SMILES | MIC (Staphylococcus aureus [1]) [µg/mL] | MIC (Staphylococcus aureus [2]) [µg/mL] | MIC (Staphylococcus aureus [3]) [µg/mL] | MIC [4] [µg/mL] | MIC (Staphylococcus aureus [5]) [µg/mL] | MIC (Staphylococcus aureus [6]) [µg/mL] | MIC [7] [µg/mL] | MIC [8] [µg/mL] | MIC (Streptococcus pneumoniae [9]) [µg/mL] | MIC (Streptococcus pneumoniae [10]) [µg/mL] | MIC (Haemophilus influenzae [11]) [µg/mL] | also measured
C=C1C[C@@H](C(=O)Nc2ccc(F)cc2)N(C(=O)[C@H](CCCC)CN(O)C=O)C1 | 1 (≈ 2.55 µM) | 4 (≈ 10.2 µM) | 0.5 (≈ 1.28 µM) | 1 (≈ 2.55 µM) | – | – | – | – | – | – | – | –
C=C1C[C@@H](C(=O)Nc2ccccc2)N(C(=O)[C@H](CC2CCCC2)CN(O)C=O)C1 | 0.5 (≈ 1.25 µM) | 1 (≈ 2.5 µM) | 0.25 (≈ 0.626 µM) | 0.5 (≈ 1.25 µM) | – | – | – | – | – | – | – | –
C=C1C[C@@H](C(=O)Nc2ncc(C)s2)N(C(=O)[C@H](CCCC)CN(O)C=O)C1 | 0.5 (≈ 1.27 µM) | 1 (≈ 2.53 µM) | 0.125 (≈ 0.317 µM) | 0.125 (≈ 0.317 µM) | 1 (≈ 2.53 µM) | 0.5 (≈ 1.27 µM) | 1 (≈ 2.53 µM) | 2 (≈ 5.07 µM) | 0.25 (≈ 0.634 µM) | 0.5 (≈ 1.27 µM) | 4 (≈ 10.1 µM) | MIC (Staphylococcus aureus [12]): 0.5 µg/mL (≈ 1.27 µM); MIC (Staphylococcus aureus [13]): 0.125 µg/mL (≈ 0.317 µM); MIC (Enterococcus faecalis): 4 µg/mL (≈ 10.1 µM); MIC (Enterococcus faecium): 2 µg/mL (≈ 5.07 µM); MIC (Haemophilus influenzae [14]): 4 µg/mL (≈ 10.1 µM); MIC (Haemophilus influenzae [15]): 4 µg/mL (≈ 10.1 µM); MIC (Haemophilus influenzae [16]): ≤ 0.06 µg/mL; MIC (Moraxella catarrhalis): ≤ 0.06 µg/mL; MIC (Streptococcus pneumoniae [17]): 2 µg/mL (≈ 5.07 µM); MIC (Streptococcus pneumoniae [18]): 1 µg/mL (≈ 2.53 µM); MIC (Streptococcus pneumoniae [19]): 2 µg/mL (≈ 5.07 µM); MIC (Escherichia coli): 64 µg/mL (≈ 162 µM); MIC (Streptococcus pyogenes [20]): 2 µg/mL (≈ 5.07 µM); MIC (Streptococcus pyogenes [21]): 2 µg/mL (≈ 5.07 µM)
C=C1C[C@@H](C(=O)Nc2ccc(O)cc2)N(C(=O)[C@H](CCCC)CN(O)C=O)C1 | 8 (≈ 20.5 µM) | 32 (≈ 82.2 µM) | 4 (≈ 10.3 µM) | 8 (≈ 20.5 µM) | – | – | – | – | – | – | – | –
C=C1C[C@@H](C(=O)Nc2ccc(F)cc2)N(C(=O)[C@H](CC2CCCC2)CN(O)C=O)C1 | 1 (≈ 2.4 µM) | 2 (≈ 4.79 µM) | 0.5 (≈ 1.2 µM) | 1 (≈ 2.4 µM) | 1 (≈ 2.4 µM) | 0.25 (≈ 0.599 µM) | 0.5 (≈ 1.2 µM) | 0.25 (≈ 0.599 µM) | 0.25 (≈ 0.599 µM) | 0.25 (≈ 0.599 µM) | 4 (≈ 9.58 µM) | –
CC(=O)NC[C@H]1CN(c2ccc(N3CCOCC3)c(F)c2)C(=O)O1 [LINEZOLID] | – | – | – | 0.5 (≈ 1.48 µM) | 1 (≈ 2.96 µM) | 0.5 (≈ 1.48 µM) | 1 (≈ 2.96 µM) | 1 (≈ 2.96 µM) | – | – | – | –
C=C1C[C@@H](C(=O)Nc2ccc(F)cn2)N(C(=O)[C@H](CCCC)CN(O)C=O)C1 | 1 (≈ 2.55 µM) | 2 (≈ 5.1 µM) | 0.125 (≈ 0.319 µM) | 0.5 (≈ 1.27 µM) | – | – | – | – | – | – | – | MIC (Staphylococcus aureus [12]): 4 µg/mL (≈ 10.2 µM); MIC (Staphylococcus aureus [13]): 0.5 µg/mL (≈ 1.27 µM); MIC (Enterococcus faecalis): 32 µg/mL (≈ 81.5 µM); MIC (Enterococcus faecium): 4 µg/mL (≈ 10.2 µM); MIC (Haemophilus influenzae [14]): 16 µg/mL (≈ 40.8 µM); MIC (Haemophilus influenzae [15]): 16 µg/mL (≈ 40.8 µM); MIC (Haemophilus influenzae [16]): 0.5 µg/mL (≈ 1.27 µM); MIC (Moraxella catarrhalis): 0.25 µg/mL (≈ 0.637 µM); MIC (Streptococcus pneumoniae [17]): 16 µg/mL (≈ 40.8 µM); MIC (Streptococcus pneumoniae [18]): 4 µg/mL (≈ 10.2 µM); MIC (Streptococcus pneumoniae [19]): 8 µg/mL (≈ 20.4 µM); MIC (Escherichia coli): > 64 µg/mL; MIC (Streptococcus pyogenes [20]): 4 µg/mL (≈ 10.2 µM); MIC (Streptococcus pyogenes [21]): 4 µg/mL (≈ 10.2 µM)
C=C1C[C@@H](C(=O)Nc2ccc(F)c[n+]2[O-])N(C(=O)[C@H](CC2CCCC2)CN(O)C=O)C1 | 0.125 (≈ 0.288 µM) | 2 (≈ 4.6 µM) | 0.125 (≈ 0.288 µM) | 0.5 (≈ 1.15 µM) | 0.5 (≈ 1.15 µM) | 0.125 (≈ 0.288 µM) | 0.125 (≈ 0.288 µM) | 0.25 (≈ 0.575 µM) | 0.25 (≈ 0.575 µM) | 0.0625 (≈ 0.144 µM) | 2 (≈ 4.6 µM) | –
C=C1C[C@@H](C(=O)Nc2ccc(F)cn2)N(C(=O)[C@H](CC2CCCC2)CN(O)C=O)C1 | 0.5 (≈ 1.19 µM) | 1 (≈ 2.39 µM) | 0.0625 (≈ 0.149 µM) | 0.125 (≈ 0.299 µM) | 0.5 (≈ 1.19 µM) | 0.25 (≈ 0.597 µM) | 0.5 (≈ 1.19 µM) | 0.5 (≈ 1.19 µM) | 0.25 (≈ 0.597 µM) | 0.25 (≈ 0.597 µM) | 2 (≈ 4.78 µM) | –
CC1(C)S[C@@H]2[C@H](NC(=O)Cc3ccccc3)C(=O)N2[C@H]1C(=O)O [PENICILLIN G] | 0.0625 (≈ 0.187 µM) | 1 (≈ 2.99 µM) | 64 (≈ 191 µM) | 2 (≈ 5.98 µM) | 0.5 (≈ 1.5 µM) | 64 (≈ 191 µM) | 4 (≈ 12 µM) | 64 (≈ 191 µM) | 2 (≈ 5.98 µM) | 64 (≈ 191 µM) | 16 (≈ 47.8 µM) | –
